{
  "source": "patent US20050170020A1",
  "about": "“Using organic and / or inorganic potassium and its salts to treat autoimmune and other health disorders and methods of administering the same” (priority 2003, published 2005)",
  "test_system": "psoriasis affected scalp area",
  "test": "Phenylephrine applied on psoriasis affected scalp area",
  "assay_type": "in vivo, human",
  "conditions": "topical, inventor",
  "source_text": "From above it is clear that by reducing the body water loss i.e. by vasoconstriction we can control the psoriasis. To check this theory inventor has applied Phenylephrine which is used for nasal decongestant, on psoriasis affected scalp area. Phenylephrine is an Adrenergic Agent that mimics the sympathetic neurotransmitter norepinephrine (NE). […] This worked by way of reducing water loss of psoriatic skin by vasoconstriction.",
  "data": [
    {"compound": "CNC[C@H](O)c1cccc(O)c1", "note": "[Phenylephrine]", "values": [
      {"measurement": "Response of psoriatic skin", "value": "lesions reduced"}
    ]}
  ]
}
